The values that follow come from PubChem BioAssay (NCI).

The structures appear in SMILES notation.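 Cultured in 96-well plates, cells were exposed to test compound for 48 hours across five concentrations. Here, GI50 denotes the concentration required for 50% inhibition of growth. The concentration for full growth arrest is given as TGI.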

Assay in all cases: NCI anticancer screen, dose series, 48 h
The test system of assay [1] is LOX IMVI melanoma.
Assay [2] has as its system HCT-116 colon.
Assay [3] has as its system SK-MEL-28 melanoma.
The test system of assay [4] is RPMI-8226 leukemia.
For assay [5], the system named is M14 melanoma.
Assay [6] relates to IGROV1 ovarian.
Assay [7] relates to U251 CNS.
For assay [8], the system named is SF-268 CNS.
Assay [9] concerns KM12 colon.
For assay [10], the system named is T-47D breast.

`C=CC(C)(C)n1cc(C2=C(O)C(=O)C(c3cn(C(C)(C)C=C)c4ccccc34)=C(O)C2=O)c2ccccc21`: the TGI in [1] is 11.2 µM; in [2], greater than 33.9 µM; in [3], 35 µM; in assay [4] it was 40.2 µM; in [5], 8.5 µM; in [6], 7.15 µM. The TGI in [7] is 10.4 µM; in [8] it was 8.15 µM; in [9] it was 13.5 µM; in [10], 23.1 µM.

`FC(F)(F)c1ccc(-c2nn3ncccc3c2-c2ccnc(Nc3ccc4c(c3)OCCO4)n2)cc1`: the GI50 was 5.16 µM in [1]; 8.15 µM in assay [2]; greater than 25 µM in assay [3]; 5.97 µM in [4]; 8.92 µM in [5]; 5190 nM in [6]. Further, the GI50 in assay [7] is 14.1 µM; in assay [8] it was greater than 21300 nM; in assay [9] it was 10.7 µM; in [10], 4.78 µM. In addition, the TGI in assay [1] is 15.3 µM; in assay [2], greater than 25 µM; in assay [3], greater than 25 µM; in [4] it was greater than 20.4 µM; in assay [5], greater than 25 µM; in [6], greater than 25 µM. The TGI in assay [7], in assay [8], in [9] and in assay [10] was greater than 25 µM in each case.

Take `CCn1cc(/C=C2\Oc3cc(OCC#N)ccc3C2=O)c2cc(OC)ccc21`: the GI50 in assay [1] is 0.238 µM; in assay [2], 0.143 µM; in [3], 6.71 µM; in [4], 0.214 µM; in assay [5], 0.119 µM; in assay [6] it was 509 nM. The GI50 in assay [7] is 0.425 µM; in [8] it was 1480 nM; in [9] it was 0.546 µM; in assay [10], 0.961 µM. Also, the TGI in [1] was greater than 100 µM; in assay [2], greater than 100 µM; in [3], greater than 100 µM; in [4], greater than 72.5 µM; in [5], greater than 100 µM; in assay [6], greater than 100 µM. Also, the TGI in [7] is greater than 48.7 µM; in [8], greater than 55.6 µM; in [9], greater than 100 µM; in assay [10], greater than 100 µM.

For the molecule `O=C(NN1C(=O)CSC1c1cccc(Cl)c1)C(O)c1ccccc1` (stereo not given), the GI50 was greater than 100 µM in assay [1]; 83.8 µM in assay [2]; greater than 100 µM in [3]; 23.1 µM in assay [4]; greater than 100 µM in assay [5]; greater than 100000 nM in assay [6]. For the same molecule, the GI50 was 59.2 µM in assay [7], greater than 100000 nM in assay [8], 90.4 µM in assay [9] and 67.7 µM in [10]. Besides, the TGI in assay [1], in assay [2], in [3], in [4], in assay [5] and in assay [6] was greater than 100 µM each time. Moreover, the TGI in [7], in assay [8], in [9] and in [10] was greater than 100 µM each time.

Take `CCSc1ccc([C@@H]2[C@@H](O)C(=O)N2c2cc(OC)c(OC)c(OC)c2)cc1`: the GI50 in assay [1] is less than 0.0147 µM; in [2] it was less than 0.011 µM; in assay [3], 11.7 µM; in assay [4] it was 0.0279 µM; in assay [5], less than 0.01 µM; in assay [6], 23.5 nM. The GI50 in [7] is less than 0.0144 µM; in assay [8] it was 50.4 nM; in assay [9], less than 0.0133 µM; in assay [10] it was 14.2 µM. For the same molecule, the TGI in assay [1] turned out to be 14.5 µM; in assay [2], 3.06 µM; in assay [3], 33 µM; in [4], 12 µM; in assay [5] it was 15.8 µM; in assay [6] it was 66.2 µM. The TGI in [7] was determined as 16 µM; in assay [8] it was 51.7 µM; in [9], 33.7 µM; in assay [10], 45.8 µM.

On to `CC(C)(C)[Si](C)(C)OC1[C@@H](CNC(N)=O)O[C@@H](n2cnc3c(NC(=O)Nc4ccccc4)ncnc32)[C@H]1O[Si](C)(C)C(C)(C)C` (stereo not given in full), for which the GI50 was 0.856 µM in [1]; 0.78 µM in [2]; 6.71 µM in assay [3]; 1.12 µM in assay [4]; 2 µM in assay [5]; 2120 nM in [6]. Besides, the GI50 was 1.89 µM in [7], 1040 nM in assay [8], 1.09 µM in assay [9] and 7.56 µM in assay [10]. Moreover, the TGI in assay [1] turned out to be 1.56 µM; in assay [2], 1.45 µM; in assay [3] it was 14 µM; in [4], 2.63 µM; in assay [5], 8.11 µM; in assay [6], 7.36 µM. Besides, the TGI in assay [7] came out at 7.93 µM; in assay [8] it was 2.36 µM; in [9] it was 2.2 µM; in assay [10], 14.2 µM.

Consider `O=C1/C(=C\c2ccco2)Oc2ccccc21`, for which the TGI in assay [1], in assay [2], in assay [3], in assay [4], in assay [5] and in assay [6] was greater than 100 µM throughout. In addition, the TGI in [7], in assay [8], in assay [9] and in [10] was greater than 100 µM each time.

With `O=[N+]([O-])c1cc([As](Br)c2ccc(O)c([N+](=O)[O-])c2)ccc1O`, the TGI in [1] was determined as 3.96 µM; in assay [2], 5.54 µM; in assay [3] it was 3.31 µM; in assay [4], 1.28 µM; in assay [5], 4.33 µM; in assay [6], 3.6 µM. In addition, the TGI in [7] turned out to be 4.47 µM; in assay [8] it was 5.59 µM; in assay [9], 4.06 µM; in assay [10], 0.557 µM.

With `COc1ccc(C2=NC(=O)NC2c2ccc(OC)cc2)cc1` (stereo not given), the GI50 in [1] is 12.4 µM; in assay [2], 5.9 µM; in assay [3], 14.9 µM; in [4], 7.58 µM; in assay [5] it was 4.03 µM; in assay [6], 23200 nM. The GI50 was 7.85 µM in assay [7], 16500 nM in assay [8], 4.5 µM in [9] and 6.9 µM in assay [10]. For the same molecule, the TGI in assay [1] is greater than 100 µM; in assay [2] it was 27.7 µM; in assay [3], greater than 100 µM; in assay [4] it was 50.6 µM; in assay [5], 25.4 µM; in [6], greater than 100 µM. Also, the TGI is greater than 100 µM in assay [7], greater than 100 µM in [8], 29.5 µM in assay [9] and greater than 100 µM in [10].
